Assay [1] relates to Angiotensin II (AT2) Receptor. Kind of assay: Test for Inhibition of Binding to Angiotensin II (AT2) Receptor. The settings on record: 10^-6 M compound; 0.1 nM ^125 I-AngII; bovine brain specimen; 37° C., 30 minutes. Here is the method: Test for Inhibition of Binding to Angiotensin II (AT2) Receptor:
The effect of the compounds of the present invention for inhibiting the binding activity of Angiotensin II (AngII) to the bovine brain receptor were tested, according to the method by J. P. Bennett, Jr. et al. [J. Biol. Chem., 251, 7423-7430 (1976)].
10^-6 M of the compound of the present invention to be tested was added to an aqueous solution containing a predetermined amount of a bovine brain specimen and 0.1 nM of ^125 I-AngII and incubated at 37° C. for 30 minutes. The resulting solution was separated through a glass fiber filter to terminate the reaction. The radioactivity bonded to the filter was quantified by a γ-counter.

The subject of assay [2] is spontaneous hypertensive male rat. As to the kind of experiment: Test for Hypotensive Effect (oral, spontaneous hypertensive rat). Format: in vivo. The following applies: 30 mg/kg, spontaneous hypertensive male rat (10-week age). Here is the method:
Test for Hypotensive Effect
The compounds of the present invention to be tested were dissolved in a physiological saline solution and was orally administered to a spontaneous hypertensive male rat (10-week age). The blood pressure of the rat was measured, via a pressure transducer through the catheter that had previously been introduced into its aorta from its femoral artery. The variation in the blood pressure was observed from before the application of the compound to 20 hours after the application thereof.

Another assay deals with angiotensin II (AngII). Kind of assay: Test for Antagonistic Effect against Angiotensin (inhibition of AngII contraction of rabbit thoracic aorta ring). Format: cell-based. The following applies: Oryctolagus cuniculus, AngII 10^-8 M, corrected using DMSO, read-out: Percentage of Inhibition of Contraction; for inhibition at 0.1 µM: 1 × 10^-7 M compound; for inhibition at 0.01 µM: 1 × 10^-8 M compound. Here is the method:
Test for Antagonistic Effect against Angiotensin:
A rabbit was sacrificed while anesthetized with pentobarbital, and immediately its thoracic aorta was removed. This was cut into a ring specimen, kept at 37° C. and hung in a nutrient liquid (Krebs-Henseleit solution) aerated with a mixed gas comprising 95% oxygen and 5% carbon dioxide, whereupon its isometric contraction was measured. The specimen was equilibrated for one hour, with replacement of the nutrient liquid every 20 minutes, and thereafter angiotensin II (AngII: 10^-8 M) was applied thereto to cause its contraction. To evaluate the effect of the compounds of the present invention, the compound to be tested (10^-7 M or 10^-8 M) was applied as pre-treatment to the specimen in 20 minutes before the fourth application of AngII thereto, the percentage of inhibiting the contraction caused by AngII was obtained on the basis of the third contraction caused by AngII of being 100%. The percentage was corrected, using dimethylsulfoxide (DMSO).

As to `CCCN(Cc1ccc(-c2ccccc2-c2nnn[nH]2)cc1)c1nn(CCc2ccccc2)c(Br)c1C(=O)O` [compound 4], the “Percentage of Inhibition” value in assay [1] worked out at 55.1%. The “Time after the administration at which the largest percentage of blood pressure depression was obtained” value in assay [2] came out at 10 h. Besides, the “Largest Percentage of Blood Pressure Depression” value in assay [2] (observed to 20 hours) is 29.6%. Also, in the assay on angiotensin II (AngII), the inhibition at 0.1 µM amounted to 85% and the inhibition at 0.01 µM amounted to 40%.
Take `CCCN(Cc1ccc(-c2ccccc2-c2nnn[nH]2)cc1)c1nn(CCc2ccccc2)c(Cl)c1C(=O)O` [compound 56]: in the assay on angiotensin II (AngII), the inhibition at 0.1 µM is 84% and the inhibition at 0.01 µM is 51%.
For `CCCN(Cc1ccc(-c2ccccc2-c2nnn[nH]2)cc1)c1nn(CCc2ccccc2)c(-c2ccccc2)c1C(=O)O` [compound 61], in that order: 77% and 34%.
The matching figures for `CCCN(Cc1ccc(-c2ccccc2-c2nnn[nH]2)cc1)c1nn(CCc2ccccc2)c(-c2ccc(OC)cc2)c1C(=O)O` [compound 64]: 92% and 29%.
The matching figures for `CCCN(Cc1ccc(-c2ccccc2-c2nnn[nH]2)cc1)c1nn(CCc2ccccc2)c(-c2cccc(Br)n2)c1C(=O)O` [compound 67]: 35% and 13%.
In the case of `CCCN(Cc1ccc(-c2ccccc2-c2nnn[nH]2)cc1)c1nn(CCc2ccccc2)c(-c2cccs2)c1C(=O)O` [compound 68], in the assay with angiotensin II (AngII), the inhibition at 0.1 µM was found to be 35% and the inhibition at 0.01 µM was determined as 18%.
The matching figures for `CCCN(Cc1ccc(-c2ccccc2-c2nnn[nH]2)cc1)c1nn(CCc2ccccc2)c(C(=O)c2ccccc2)c1C(=O)O` [compound 71]: 36% and 14%.
The matching figures for `CCCNc1c(C(=O)O)c(N(CCC)Cc2ccc(-c3ccccc3-c3nnn[nH]3)cc2)nn1CCc1ccccc1` [compound 72]: 15% and 7%.

The record behind these values is US5817828A, “Pyrazole derivatives” (Nissan Chemical Industries, Ltd., priority 1993, dated 1998).
